The text below walks through data of patent US11059778B2, “Cannabinoid receptor CB2 ligand 4-(aminomethyl)-N, N-dialkylanilines” (UNIVERSITY OF PITTSBURGH—OF THE COMMONWEALTH SYSTEM OF …, priority 2015, dated 2021).

In one test the target is T1, human CB1 receptors (Homo sapiens, UniProt P21554).
T1 construct: expressed in transfected cells
The experiment in a line: [3H]CP-55,940 radioligand competition binding assay, CB1. The note with it: CHO cell membranes, [3H]CP-55,940 displacement. As for the experimental part: (§1) Binding assay. The bioassay is carried out using the Perkin Elmer 96-well Top Counter. This bioassay is also known as a competition binding assay and the biological evaluation is to determine the CB receptor binding affinity (Ki) of the screened ligands by displacing [^3H]-CP-55940 (or other radioligands). The brief procedure is given below.
(§2) Perkin Elmer 96-well TopCounter is used at PMLSC and in our laboratory to determine the CB receptor binding affinity (Ki) of the in-silico screened ligands by displacing [^3H]-CP-55,940 (or other radioligands). In competition binding experiments, the tested compound dilutions are carried out in triplicate in TME buffer (25 mM Tris, 5 mM MgCl2, 1 mM EDTA) containing 0.1% (w/v) fatty acid free bovine serum albumin (BSA), pH 7.4. Various concentrations of the tested compound are added in the same volume to 0.5 nM [^3H]CP-55,940. TME buffer and cell membrane preparations expressing CB receptors (2.5 μg per well) are added to a final volume of 200 μL. For the saturation binding experiments, varying concentrations of [^3H]CP-55,940 (0.05-1.5 nM) with or without 2 μM of unlabeled ligands (CP-55,940 or WIN-55,212-2) are incubated with the receptor membrane preparations to determine Kd and nonspecific binding. After the binding suspensions are incubated at 30° C. for 1 hr, the reaction is terminated by rapid filtration through microfiltration plates coated with 0.5% polyethylenimine (Unifilter GF/B filterplate, PerkinElmer) followed by 5 washes with ice cold TME buffer containing 0.5% BSA on a Packard Filtermate Harvester (PerkinElmer). The plates are then dried overnight and 30 μl MicroScint 0 scintillation cocktail are added to each well of the dried filter plates. Then the bound radioactivity is counted using a Perkin Elmer 96-well TopCounter. The Ki is calculated by using nonlinear regression analysis (Prism 5; GraphPad Software Inc., San Diego, Calif.), with the Kd values for [^3H]CP-55,940 determined from saturation binding experiments. This assay is used for determining binding affinity parameters (Ki) of ligand-receptor interactions for the CB receptor.
(§3) The affinities of the synthesized ligands were determined in radioligand binding studies at human CB1 and CB2 receptors using [3H](—)-cis-3-[2-hydroxy-4-(1,1 dimethylheptyl)phenyl]-trans-4-(3-hydroxypropyl) cyclohexanol (CP55,940) as a CB receptor radioligand. As a source for human CB1 and CB2 receptors, membrane preparations of Chinese hamster ovary (CHO) cells stably expressing the respective receptor subtype were utilized (50 μg of protein/vial). CB2 selective ligand SR144528 (CB2 inverse agonist) and CB1 ligand SR141716 (CB1 inverse agonist) were used as positive controls, respectively, along with the tested compounds in bioassays experiments. Only compounds with high CB2 receptor binding potency was chosen to carry out the CB1 binding assay. CB ligand competition binding assay was carried out as described previously in Gertsch, J., et al., Beta-caryophyllene is a dietary cannabinoid. Proc Natl Acad Sci USA 2008, 105 (26), 9099-104. Briefly, non-radioactive (or cold) ligands (synthesized derivatives and reference ligands) were diluted in a binding buffer (50 mM Tris-HCl (pH 7.4), 5 mM MgC12, 2.5 mM EGTA, and 0.1% (w/v) fatty acid free BSA), supplemented with 10% dimethyl sulfoxide and 0.4% methyl cellulose. Each assay plate well contained a total of 200 μL of reaction mixture composed of 5 μg of CB1 (or 2.5 μg CB2) membrane protein, labeled [3H]-CP-55,940 ligand at a final concentration of 2.5 nM, and the unlabeled ligand at its varying dilutions as stated above. Plates were incubated at 30° C. for 1 hour with gentle shaking.
(§4) The reaction was terminated by rapid filtration through Unifilter GF/B filter plates using a Unifilter Cell Harvester (PerkinElmer). After the plate was allowed to dry overnight, 30 μL MicroScint-0 cocktail (PerkinElmer) was added to each well, and the radioactivity was counted using a PerkinElmer TopCounter. […]
In general terms: Loss of bound radioactivity is the signal in a displacement assay; it reports binding, not function.

Another test deals with T2, human CB2 receptors (Homo sapiens, UniProt P34972).
T2 construct: expressed in transfected cells
The experiment in a line: [3H]CP-55,940 radioligand competition binding assay, CB2. Particulars: for Ki: CHO cell membranes, [3H]CP-55,940 displacement. The method, then:
as §1, §2, §3, §4

T1 sequence (P21554 whole entry): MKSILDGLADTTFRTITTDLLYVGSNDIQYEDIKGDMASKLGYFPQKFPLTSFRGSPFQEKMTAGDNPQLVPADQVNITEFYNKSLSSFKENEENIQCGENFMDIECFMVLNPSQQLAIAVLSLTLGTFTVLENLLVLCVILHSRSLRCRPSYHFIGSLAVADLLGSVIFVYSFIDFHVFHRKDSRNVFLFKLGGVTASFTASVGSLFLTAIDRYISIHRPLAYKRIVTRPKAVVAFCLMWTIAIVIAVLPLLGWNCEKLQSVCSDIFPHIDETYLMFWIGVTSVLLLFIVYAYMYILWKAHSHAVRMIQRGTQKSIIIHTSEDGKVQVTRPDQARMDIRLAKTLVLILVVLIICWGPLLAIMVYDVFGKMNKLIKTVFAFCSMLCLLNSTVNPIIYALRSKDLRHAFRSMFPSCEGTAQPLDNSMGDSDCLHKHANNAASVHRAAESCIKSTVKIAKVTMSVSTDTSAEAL
T2 sequence (P34972 whole entry): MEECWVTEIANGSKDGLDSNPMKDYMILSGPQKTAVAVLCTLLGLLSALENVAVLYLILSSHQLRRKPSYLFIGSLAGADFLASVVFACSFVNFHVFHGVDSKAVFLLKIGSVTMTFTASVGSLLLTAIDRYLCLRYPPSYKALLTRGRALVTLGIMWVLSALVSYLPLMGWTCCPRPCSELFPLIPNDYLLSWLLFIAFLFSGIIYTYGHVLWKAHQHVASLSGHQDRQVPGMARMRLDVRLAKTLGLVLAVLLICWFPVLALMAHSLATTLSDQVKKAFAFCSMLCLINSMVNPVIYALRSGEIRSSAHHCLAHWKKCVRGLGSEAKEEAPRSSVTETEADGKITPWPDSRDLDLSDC

The Ki is a measure of affinity in units of concentration, obtained from inhibition or displacement. Low readings indicate higher affinity, high ones lower affinity. As for “4-(((benzo[d][1,3]dioxol-5-ylmethyl)(quinoxalin-2-ylmethyl)amino)methyl)-N,N-diethylaniline [Compound 31]”, the Ki at human CB1 receptors is 1270 nM. Moreover, at human CB2 receptors, the “SI: selectivity index for CB2, calculated as Ki(CB1)/Ki(CB2) ratio” value is listed as 2 and the inhibition constant Ki worked out at 775 nM.
`CCN(CC)c1ccc(CNCc2cc(OC)c(OC)c(OC)c2)cc1` [Compound 3, N,N-diethyl-4-(((3,4,5-trimethoxybenzyl)amino)methyl)aniline]: at human CB2 receptors, the affinity corresponds to a Ki of 42300 nM.
For `CCN(CC)c1ccc(CN(Cc2cc(OC)c(OC)c(OC)c2)S(=O)(=O)c2ccc(OC)cc2)cc1` [Compound 4, N-(4-(diethylamino)benzyl)-4-methoxy-N-(3,4,5-trimethoxybenzyl)benzenesulfonamide], on human CB1 receptors, the Ki was greater than 20000 nM and the “Ki (CB1)” value was “no CB1 binding affinity”. On human CB2 receptors, the “SI: selectivity index for CB2, calculated as Ki(CB1)/Ki(CB2) ratio” value is 50 and the affinity corresponds to a Ki of 410 nM.
`CCN(CC)c1ccc(CN(Cc2cc(OC)c(OC)c(OC)c2)S(=O)(=O)c2cccc(C)c2)cc1` [Compound 5, N-(4-(diethylamino)benzyl)-3-methyl-N-(3,4,5-trimethoxybenzyl)benzenesulfonamide] gave a Ki on human CB1 receptors of 732 nM. Also, on human CB2 receptors, the “SI: selectivity index for CB2, calculated as Ki(CB1)/Ki(CB2) ratio” value was 3 and the affinity corresponds to a Ki of 291 nM.
On the same counts, the results for `CCN(CC)c1ccc(CN(Cc2cc(OC)c(OC)c(OC)c2)S(=O)(=O)c2ccc(C)cc2)cc1` [Compound 6, N-(4-(diethylamino)benzyl)-4-methyl-N-(3,4,5-trimethoxybenzyl)benzenesulfonamide] are 774 nM, 2 and 387 nM.
For the compound `CCN(CC)c1ccc(CN(Cc2cc(OC)c(OC)c(OC)c2)S(=O)(=O)c2ccccc2)cc1` [Compound 7, N-(4-(diethylamino)benzyl)-N-(3,4,5-trimethoxybenzyl)benzenesulfonamide], on human CB1 receptors, the inhibition constant (Ki) was greater than 20000 nM and the “Ki (CB1)” value was “no affinity”. On human CB2 receptors, the “SI: selectivity index for CB2, calculated as Ki(CB1)/Ki(CB2) ratio” value is reported as 44 and the affinity, expressed as Ki, was 453 nM.
`CCN(CC)c1ccc(CN(Cc2cc(OC)c(OC)c(OC)c2)S(=O)(=O)c2ccc(C(C)C)cc2)cc1` [Compound 8, N-(4-(diethylamino)benzyl)-4-isopropyl-N-(3,4,5-trimethoxybenzyl)benzenesulfonamide]: the figures for the Ki at human CB1 receptors and on human CB2 receptors were 122 nM and 230 nM, respectively.
In the same order, the values of `CCN(CC)c1ccc(CN(Cc2cc(OC)c(OC)c(OC)c2)S(=O)(=O)c2ccc3ccccc3c2)cc1` [Compound 9, N-(4-(diethylamino)benzyl)-N-(3,4,5-trimethoxybenzyl)naphthalene-2-sulfonamide] are 71 nM and 239 nM.
For `CCN(CC)c1ccc(CN(Cc2cc(OC)c(OC)c(OC)c2)S(=O)(=O)c2ccc(-c3ccccc3)cc2)cc1` [Compound 10, N-(4-(diethylamino)benzyl)-N-(3,4,5-trimethoxybenzyl)-[1,1′-biphenyl]-4-sulfonamide], the results for the Ki at human CB1 receptors and at human CB2 receptors were greater than 20000 nM and 322 nM, respectively. The “SI: selectivity index for CB2, calculated as Ki(CB1)/Ki(CB2) ratio” value on human CB2 receptors is recorded as 62.
Turning to `CCN(CC)c1ccc(CN(Cc2cc(OC)c(OC)c(OC)c2)C(=O)c2cnc3ccccc3n2)cc1` [Compound 12, N-(4-(diethylamino)benzyl)-N-(3,4,5-trimethoxybenzyl)quinoxaline-2-carboxamide], the values for the Ki on human CB1 receptors and on human CB2 receptors were 13000 nM and 249 nM, respectively. Also, the “SI: selectivity index for CB2, calculated as Ki(CB1)/Ki(CB2) ratio” value on human CB2 receptors is 52.
In the same order, the values of `CCN(CC)c1ccc(CN(Cc2cc(OC)c(OC)c(OC)c2)S(=O)(=O)c2ccc(OC(F)(F)F)cc2)cc1` [Compound 13, N-(4-(diethylamino)benzyl)-4-(trifluoromethoxy)-N-(3,4,5-trimethoxybenzyl)benzenesulfonamide] are 1240 nM, 990 nM and 2.
On the same counts, the results for `CCN(CC)c1ccc(CN(Cc2cc(OC)c(OC)c(OC)c2)S(=O)(=O)c2ccccc2C)cc1` [Compound 14, N-(4-(diethylamino)benzyl)-2-methyl-N-(3,4,5-trimethoxybenzyl)benzenesulfonamide] are 180 nM, 157 nM and 2.
On the same counts, the results for `CCN(CC)c1ccc(CN(Cc2cc(OC)c(OC)c(OC)c2)S(=O)(=O)c2cccs2)cc1` [Compound 16, N-(4-(diethylamino)benzyl)-N-(3,4,5-trimethoxybenzyl)thiophene-2-sulfonamide] are greater than 20000 nM, 639 nM and 32.
Take `CCN(CC)c1ccc(CN(Cc2cc(OC)c(OC)c(OC)c2)S(=O)(=O)c2ccc(OC)c(OC)c2)cc1` [Compound 17, N-(4-(diethylamino)benzyl)-3,4-dimethoxy-N-(3,4,5-trimethoxybenzyl)benzenesulfonamide]: the Ki on human CB2 receptors was found to be 657 nM.
Consider `CCN(CC)c1ccc(CNCc2cccnc2)cc1` [Compound 20, N,N-diethyl-4-(((pyridin-3-ylmethyl)amino)methyl)aniline], for which, on human CB2 receptors, the inhibition constant Ki was greater than 20000 nM.
`CCN(CC)c1ccc(CN(Cc2cccnc2)C(=O)c2cccs2)cc1` [Compound 21, N-(4-(diethylamino)benzyl)-N-(pyridin-3-ylmethyl)thiophene-2-carboxamide] came in with an inhibition constant (Ki) at human CB2 receptors of 1020 nM.
The same measure, in the same setting: as for `CCN(CC)c1ccc(CN(Cc2cccnc2)C(=O)c2cnc3ccccc3n2)cc1` [Compound 22, N-(4-(diethylamino)benzyl)-N-(pyridin-3-ylmethyl)quinoxaline-2-carboxamide], the figure is 1200 nM.
Regarding `CCN(CC)c1ccc(CN(Cc2cccnc2)S(=O)(=O)/C=C/c2ccccc2)cc1` [Compound 23, (E)-N-(4-(diethylamino)benzyl)-2-phenyl-N-(pyridin-3-ylmethyl)ethene-1-sulfonamide], the inhibition constant (Ki) on human CB1 receptors was 5460 nM. Moreover, at human CB2 receptors, the “SI: selectivity index for CB2, calculated as Ki(CB1)/Ki(CB2) ratio” value is listed as 6 and the Ki worked out at 899 nM.
On the same counts, the results for `CCN(CC)c1ccc(CN(Cc2cccnc2)S(=O)(=O)c2ccc3ccccc3c2)cc1` [Compound 24, N-(4-(diethylamino)benzyl)-N-(pyridin-3-ylmethyl)naphthalene-2-sulfonamide] are 12000 nM, 14 and 866 nM.
`CCN(CC)c1ccc(CNCc2ccc3c(c2)OCO3)cc1` [Compound 28, 4-(((benzo[d][1,3]dioxol-5-ylmethyl)amino)methyl)-N,N-diethylaniline] had an inhibition constant (Ki) at human CB2 receptors greater than 20000 nM.
At human CB2 receptors, `CCN(CC)c1ccc(CN(Cc2ccc3c(c2)OCO3)S(=O)(=O)c2ccc3ccccc3c2)cc1` [Compound 33, N-(benzo[d][1,3]dioxol-5-ylmethyl)-N-(4-(diethylamino)benzyl)naphthalene-2-sulfonamide] yielded a Ki of 882 nM.
Same read-out and setting: for `CCN(CC)c1ccc(CN(Cc2ccc3c(c2)OCO3)S(=O)(=O)c2ccc(-c3ccccc3)cc2)cc1` [Compound 34, N-(benzo[d][1,3]dioxol-5-ylmethyl)-N-(4-(diethylamino)benzyl)-[1,1′-biphenyl]-4-sulfonamide] the value was 2000 nM; for `CCCCCNCc1ccc(N(CC)CC)cc1` [Compound 36, N,N-diethyl-4-((pentylamino)methyl)aniline], 40200 nM.
The same measure, in the same setting: as for `CCCCCN(Cc1ccc(N(CC)CC)cc1)S(=O)(=O)c1ccc(-c2ccccc2)cc1` [Compound 42, N-(4-(diethylamino)benzyl)-N-pentyl-[1,1′-biphenyl]-4-sulfonamide], the figure is 3150 nM.
